{
  "source": "patent US20070224301A1",
  "about": "“Compounds from an extract of Artemisia and methods for treating disorders” (priority 2006, published 2007)",
  "key": {"[1]": {"molecular_target": "T1, human recombinant ALR2 enzyme (Homo sapiens, UniProt P15121)", "T1 construct": "purchased Wako Chemicals USA Inc", "assay": "ALR2 enzyme assay (decrease in NADPH absorbance at 340 nm)", "format": "biochemical", "conditions": "for ALR2 inhibitory activity (in words, compared with quercitrin): 3.75 μg/ml where stated", "protocol": "Human recombinant ALR2 enzyme was purchased from Wako Chemicals USA Inc. Enzyme activity was measured at each step of purification of the extract, by monitoring the decrease in NADPH absorbance at a wavelength of 340 nm (Nishimura et al., Purification and characterization of recombinant aldose reducatse expressed in baculovirus system. Biochim. Biophys. acta. pp. 1078-1171 (1991)), using a spectrophotometer. One hundred micro liters of the reaction mixture contained 100 mM sodium phosphate buffer (pH 6.2), 0.15 mM NADPH, 10 mM DL-Glyceraldehyde and 1 mU of human recombinant ALR2 enzyme. The samples were prepared in 10% DMSO and the final concentration of the samples or the positive control quercitrin was 3.75 μg/ml. The reaction was initiated by adding the enzyme and the change in NADPH absorbance was monitored over seven minutes."}, "PTP-1B": {"molecular_target": "T2, PTP-1B (Homo sapiens, UniProt P18031)", "T2 construct": "Cell lysate was prepared and PTP-1B was immunoprecipitated with specific antibody; endogenous in cells; host or cells: primary skeletal muscle cell culture (subjects with type 2 diabetes)", "T2 sequence (P18031 1-435)": "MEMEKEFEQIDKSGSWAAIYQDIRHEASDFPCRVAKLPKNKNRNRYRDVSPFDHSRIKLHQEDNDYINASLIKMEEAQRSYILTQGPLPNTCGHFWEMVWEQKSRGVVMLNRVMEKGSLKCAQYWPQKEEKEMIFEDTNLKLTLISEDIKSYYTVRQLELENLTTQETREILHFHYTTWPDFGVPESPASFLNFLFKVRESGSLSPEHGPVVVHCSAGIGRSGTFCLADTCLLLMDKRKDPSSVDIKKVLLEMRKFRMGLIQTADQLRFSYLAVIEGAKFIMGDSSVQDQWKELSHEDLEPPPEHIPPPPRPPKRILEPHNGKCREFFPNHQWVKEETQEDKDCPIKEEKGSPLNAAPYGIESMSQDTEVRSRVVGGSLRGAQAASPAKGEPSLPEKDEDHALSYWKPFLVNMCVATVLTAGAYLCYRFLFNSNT", "assay": "PTP-1B activity by PNPP hydrolysis after immunoprecipitation from treated skeletal muscle cells", "format": "cell-based", "conditions": "20 μg/ml of media; for PTP-1B inhibitory activity (decrease of PTP-1B activity): primary skeletal muscle culture from subjects with type 2 diabetes, 16 hours", "protocol": "The activity of PTP-1B was assayed by hydrolysis of p-nitrophenol phosphate (PNPP). Skeletal muscle cells were incubated overnight (16 hours) with test substance (extract, fractions or pure compounds) at 20 μg/ml of media. Cell lysate was prepared and PTP-1B was immunoprecipitated with specific antibody (Upstate Biotechnology, Lake Placid, N.Y.). The immunoprecipitate was incubated in Phosphatase Reaction Buffer (20 mmol/L HEPES, pH 7.4, 150 mmol/L NaCl, 5 mM dithiothreitol, 1 mmol/L PNPP) for 20 minutes at 37° C. The reaction was stopped with 0.2 mol/L NaOH, and the absorbance at 410 nm was measured. The reactions were run in triplicate (Moeslein et al., The CLK family kinases, CLK1 and CLK2, phosphorylate and activate the tyrosine phosphatase, PTP-1B. J Biol Chem, 274:26697-26704 (1999))."}, "PTP-1B mRNA": {"tested_on": "PTP-1B mRNA", "assay": "Quantitative real time PCR for PTP-1B gene expression", "format": "cell-based", "conditions": "skeletal muscle cells, 20 μg/ml of media", "protocol": "Cells were incubated overnight (16 hours) with test substance (extract, fractions or pure compounds) at 20 μg/ml of media and harvested from the culture treatments at the designated time points. After extraction and quantification of RNA, quantitative real time PCR (qPCR) analysis was carried out using Taqman® one-step RT-PCR Master Mix (Applied Biosystems, Branchburg, N.J.). 20 ng of total RNA were added per 50 μl reaction with sequence-specific primers (200 nM) and Taqman® probes (200 nM) as indicated here, PTP-1B probe; 5′FAM d(AGTGATGGAGAAAGGTT)BHQ-1 3′. PTP-1B forward primer; 5′ d([…])3′ and PTP-1B reverse primer; 5′ d([…])3′. Primers and probes were designed by and purchased from Applied Biosystems. qPCR assays were carried out in triplicate on an ABI Prism 7700 sequence detection system. […] The threshold was set above the non-template control background and within the linear phase of target gene amplification to calculate the cycle number at which the transcript was detected (denoted CT). Gene expression values were calculated based on the standard curve of each target gene (RNA of control cells with two-fold serial dilutions from 200 ng to 3.125 ng) and normalized by the reference housekeeping gene β-Actin (1). Results were expressed as percentage change of control (Applied Biosystems (2001) Applied Biosystems User Bulletin Number 2, Foster City, Calif.)."}, "PEPCK gene expression": {"tested_on": "PEPCK gene expression", "assay": "PEPCK gene inhibition assay (Dex/cAMP-induced, qPCR) in H4IIE hepatoma cells", "format": "cell-based, rat", "conditions": "25 μg/ml", "protocol": "H4IIE hepatoma cells (ATCC CRL-1600) were plated in 24-well tissue culture plates (Greiner Bio One) and were grown to confluence in Dulbecco's modified Eagle's medium (DMEM) containing 2.5% (v/v) newborn calf serum and 2.5% (v/v) fetal calf serum. Cells were treated for 8 hours with 500 nM dexamethasone and 0.1 mM cAMP (Dex/cAMP, both Sigma) to induce PEPCK gene expression and different concentrations or volumes of each of the tested compounds, plant extract or […] of Insulin. The fractions were tested at 50 μg/ml of media and the compounds were tested at the doses of 2.5 μg/ml, 5 μg/ml and 10 μg/ml and 25 μg/ml. Three wells were allocated for each treatment as well as for a negative control (untreated cells).\nTotal RNA was extracted from H4IIE rat hepatoma cells using Trizol reagent (Invitrogen Inc.) following the manufacturer instructions. RNA was quantified spectro-photo-metrically by absorption measurements at 260 nm and 280 nm using the NanoDrop system (NanoDrop Technologies Inc. Delware, USA). Quality of RNA was assessed by separation in gel-electrophoresis. […]\nThe synthesized cDNAs were diluted 4-fold. […] The other components of the PCR reactions were 0.5 μl of 6 μM gene specific primers (synthesized by IDT Inc. USA), 12.5 μl of Brilliant SYBR green PCR master mix (2×) (Stratagene, La Jolla, Calif.) containing green jump-start Taq ready mix. […]"}},
  "data": [
    {"smiles": "COc1ccc(CCC(=O)c2ccc(O)cc2O)cc1", "note": "(single isomer, unassigned) [F7-9/P3, 2′,4′-dihydroxy-4-methoxydihydrochalcone]", "values": [
      {"measurement": "inhibition at 3.75 µg/mL", "setting": "[1]; 3.75 μg/ml", "result": 58.2, "unit": "%"}
    ]},
    {"smiles": "O=C(/C=C/c1ccc(O)c(O)c1)OC1CC(O)(C(=O)O)CC(O)C1OC(=O)/C=C/c1ccc(O)c(O)c1", "note": "(single isomer, unassigned) [Sub-fraction 5-7, 4,5-Di-O-caffeoylquinic acid]", "values": [
      {"measurement": "greater inhibition of ALR2 than that caused by quercitrin", "setting": "[1]; 3.75 μg/ml", "result": 19, "unit": "%"},
      {"measurement": "inhibition at 3.75 µg/mL", "setting": "[1]; 3.75 μg/ml", "result": 78, "unit": "%"}
    ]},
    {"smiles": "O=C(/C=C/c1ccc(O)c(O)c1)OC1CC(O)(C(=O)O)CC(O)C1OC(=O)/C=C/c1ccc(O)c(O)c1", "note": "(stereo not shown) [Compound 1, 4,5-Di-O-caffeoylquinic acid]", "values": [
      {"measurement": "ALR2 inhibitory activity (in words, compared with quercitrin)", "setting": "[1]", "result": "highest inhibitory activity"}
    ]},
    {"smiles": "O=C(CCc1ccc(O)cc1)c1ccc(O)cc1O", "note": "[Compound 2, Davidigenin]", "values": [
      {"measurement": "ALR2 inhibitory activity (in words, compared with quercitrin)", "setting": "[1]", "result": "shows ALR2 inhibition activity"}
    ]},
    {"smiles": "COc1ccc(CCC(=O)c2ccc(O)cc2O)cc1", "note": "[Compound 4, 2′,4′-dihydroxy-4-methoxydihydrochalcone]", "values": [
      {"measurement": "PTP-1B inhibitory activity (decrease of PTP-1B activity)", "setting": "PTP-1B", "result": "≤ 26", "unit": "%"},
      {"measurement": "reduction of PTP-1B mRNA expression", "setting": "PTP-1B mRNA", "result": 29, "unit": "%"},
      {"measurement": "repression of dexamethazone/cAMP-induced PEPCK gene expression", "setting": "PEPCK gene expression", "result": "more than 50%"},
      {"measurement": "repression of dexamethazone/cAMP-induced PEPCK gene expression", "setting": "PEPCK gene expression; listed as DMDC", "result": "more than 50%"}
    ]},
    {"smiles": "COc1ccc(C(=O)CCc2ccc(O)cc2)c(O)c1", "note": "[Compound 5, 2′,4-dihydroxy-4′-methoxydihydrochalcone]", "values": [
      {"measurement": "PTP-1B inhibitory activity (decrease of PTP-1B activity)", "setting": "PTP-1B", "result": "≤ 36", "unit": "%"}
    ]},
    {"smiles": "COc1cc(O)c2c(c1)O[C@H](c1ccc(O)cc1)CC2=O", "note": "[Compound 6, Sakuranetin]", "values": [
      {"measurement": "PTP-1B inhibitory activity (decrease of PTP-1B activity)", "setting": "PTP-1B", "result": "≤ 50", "unit": "%"},
      {"measurement": "PTP-1B inhibitory activity (in words)", "setting": "PTP-1B; skeletal muscle cells", "result": "decrease PTP-1B activity"}
    ]},
    {"smiles": "C[C@@H]1O[C@@H](Oc2c(-c3ccc(O)c(O)c3)oc3cc(O)cc(O)c3c2=O)[C@H](O)[C@H](O)[C@H]1O", "note": "[quercitrin, reference compound]", "values": [
      {"measurement": "inhibition at 3.75 µg/mL", "setting": "[1]; 3.75 μg/ml", "result": 54, "unit": "%"}
    ]}
  ]
}
